The text below walks through data of publication PMC7175138, “Synthesis and Bioactivity of Thiazolethioacetamides as Potential Metallo-β-Lactamase Inhibitors” (Antibiotics, 2020).

For orientation: IC50 means the midpoint of a concentration-inhibition curve. A lower IC50 goes with higher potency.

One assay addresses ImiS (Aeromonas veronii, UniProt O31272). The experiment in a line: Enzyme inhibition assay, MβL ImiS, cefazolin as substrate. To be noted: 25 °C, 30 min premix. Format: biochemical. The method, then:
(§1) To test the inhibitory activity of compounds 1–12 against MβLs, three representative MβLs, VIM-2 (B1), ImiS (B2), and L1 (B3), were chosen for evaluation.
(§2) The enzyme inhibition activity assay was carried out on an Agilent-8453 UV-visible spectrometer. […] Cefazolin (Sigma-Aldrich, Burlington, MO, USA), with a concentration of 20 to 140 μM, was taken as the substrate. The enzyme and inhibitor were premixed with the corresponding MβL and the thiazolethioacetamides for 30 min. The IC50 values were measured at 25 °C with the inhibitor concentrations of 0 and 1000 μM, and analyzed through IC50 calculation tool (AAT Bioquest Inc., sunnyvale, CA, USA).

The target in the next assay is VIM-2 (Escherichia coli, UniProt Q5U7L7). The assay can be described thus: Enzyme inhibition assay, MβL VIM-2, cefazolin as substrate. It counts as biochemical. Conditions: 25 °C, 30 min premix. The method, then: as §1, §2

Structures are written as SMILES.

Chain of ImiS (O31272 entry or part of it): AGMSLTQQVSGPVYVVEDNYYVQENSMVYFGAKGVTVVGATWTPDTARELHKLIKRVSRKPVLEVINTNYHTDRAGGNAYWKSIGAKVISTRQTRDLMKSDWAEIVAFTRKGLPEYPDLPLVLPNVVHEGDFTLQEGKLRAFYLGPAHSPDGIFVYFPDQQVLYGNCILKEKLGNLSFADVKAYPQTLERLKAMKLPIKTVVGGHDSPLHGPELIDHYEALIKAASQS

At ImiS, `O=C(CSc1nnc(-c2ccccc2O)s1)Nc1ccccc1F` [Compound 11] registered an IC50 of 680 nM. That is a sub-micromolar value. On the same count and under the same terms, as for `O=C(CSc1nnc(-c2ccccc2O)s1)Nc1ccc(Cl)cc1Cl` [Compound 4], the figure is 580 nM; as for `O=C(CSc1nnc(-c2ccccc2O)s1)Nc1ccc(F)cc1` [Compound 9], 460 nM.

As to `O=C(CSc1nnc(-c2ccccc2O)s1)Nc1ccc([N+](=O)[O-])cc1Cl` [Compound 7], the half-inhibitory concentration (IC50) on ImiS stood at 420 nM.

Take `O=C(CSc1nnc(-c2ccccc2O)s1)Nc1ccc(Cl)cc1[N+](=O)[O-]` [Compound 5]: 170 nM corresponded to half-maximal inhibition against ImiS (IC50). Still for that read-out and setting: as for `O=C(CSc1nnc(-c2ccccc2O)s1)Nc1cccc(Cl)c1` [Compound 2], the figure is 530 nM. In the case of `O=C(CSc1nnc(-c2ccccc2O)s1)Nc1c(F)cccc1F` [Compound 12], the 50% inhibitory concentration (IC50) against ImiS was determined as 700 nM; against VIM-2 it was 19200 nM.

For `O=C(CSc1nnc(-c2ccccc2O)s1)Nc1cccc(F)c1` [Compound 10], the IC50 against ImiS worked out at 610 nM. Still for that read-out and setting: as for `O=C(CSc1nnc(-c2ccccc2O)s1)Nc1ccc(Cl)cc1` [Compound 1], the figure is 580 nM; as for `O=C(CSc1nnc(-c2ccccc2O)s1)Nc1cc(Cl)ccc1[N+](=O)[O-]` [Compound 6], 360 nM; as for `O=C(CSc1nnc(-c2ccccc2O)s1)Nc1ccc(Cl)c(Cl)c1` [Compound 3], 690 nM.

With `O=C(CSc1nnc(-c2ccccc2O)s1)Nc1ccc(OC(F)(F)F)cc1` [Compound 8], the IC50 against ImiS turned out to be 310 nM; at VIM-2, 2200 nM.
